Measurements as given in patent US20240358689A1, “Modulators Of The Beta-3 Adrenergic Receptor Useful For The Treatment Or Prevention Of Renal Cystic Disease and Cardiorenal Syndrome” (Arena Pharmaceuticals, Inc., priority 2021, published 2024).

Molecular target: T1, Beta-3 Adrenergic Receptor (Homo sapiens, UniProt P13945)
T1 construct: expressed in transfected cells; host or cells: CHO-K1
Experiment: Homogeneous Time-Resolved Fluorescence (HTRF) cAMP antagonist assay
Format: cell-based
Details: Beta-3 Adrenergic Receptor IC50 Values, isoproterenol at EC90
Procedure: Example 1: IC50 Determinations in Homogeneous Time-Resolved Fluorescence (HTRF®) cAMP Antagonist Assays
HTRF cAMP assays were performed according to manufacturer's instructions (Cisbio, cAMP Dynamic 2 Assay Kit; #62AM4PEJ). CHO-K1 cells stably expressing recombinant receptor were harvested and suspended in warm PBS to make a 300,000 cells/mL stock. This cell suspension was dispensed into 384 well assay plates (PerkinElmer ProxiPlate #6008280) at 5 μL per well (1500 cells/well) along with a cAMP standard curve.
Compounds were dissolved and serially diluted (5-fold) in DMSO to generate a 10-point dose response stock. […] After a brief incubation, 2.5 μL of isoproterenol stock, prepared at a concentration 4 times its EC90 at the receptor of interest, was added to the wells. The EC90 for isoproterenol, a beta-adrenergic agonist, was determined in separate experiments using standard methods to measure agonist potencies.
Following a 1-hour incubation at room temperature, 5 μL of cAMP-D2 Reagent diluted in Lysis Buffer was added to each well followed by 5 μL of Cryptate Reagent. Plates were further incubated at room temperature for 1 hour prior to reading. Time resolved fluorescence measurements were collected on a suitable, HTRF-capable plate reader.
Counts from the plate reader were fit to the cAMP standard curve on the assay plate in order to determine cAMP concentrations in each well, and these values were used to construct dose-response curves to obtain IC50 values.

[1] = table of B compounds, CHO-K1 cells

T1 sequence (P13945 whole entry, species assumed): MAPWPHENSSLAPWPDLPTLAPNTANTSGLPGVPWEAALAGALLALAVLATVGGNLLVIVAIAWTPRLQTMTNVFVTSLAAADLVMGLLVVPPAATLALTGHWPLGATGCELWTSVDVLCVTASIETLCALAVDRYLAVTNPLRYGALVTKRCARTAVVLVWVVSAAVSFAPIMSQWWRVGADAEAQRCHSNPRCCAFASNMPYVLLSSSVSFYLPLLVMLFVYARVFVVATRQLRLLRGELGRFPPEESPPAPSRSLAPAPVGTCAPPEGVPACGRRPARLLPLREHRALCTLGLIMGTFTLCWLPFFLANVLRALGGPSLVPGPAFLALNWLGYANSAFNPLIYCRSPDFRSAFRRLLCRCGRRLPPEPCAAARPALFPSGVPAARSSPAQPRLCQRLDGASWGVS

IC50 [1] [µM] | Structure (SMILES) | other results
 | O=S(=O)(c1cccc(OC[C@@H](O)CN[C@H]2COC3(CCN(S(=O)(=O)c4cnc5cc[nH]c5c4)CC3)C2)c1)C1CC1 [Compound A309, (S)-1-((R)-8-(1H-pyrrolo[3,2-b]pyridin-6-ylsulfonyl)-1-oxa-8-azaspiro[4.5]decan-3-ylamino)-3-(3-(cyclopropylsulfonyl)phenoxy)propan-2-ol] | IC50 (table of A compounds, CHO-K1 cells stably expressing recombinant receptor): 0.007 µM
0.472 | CN1CCOc2ncc(S(=O)(=O)N3CCC4(CC3)C[C@@H](NC[C@H](O)COc3cccc(S(=O)(=O)N[C@@H]5CCC[C@@H]5O)c3)CO4)cc21 [Compound B437, 3-((S)-2-hydroxy-3-((R)-8-(1-methyl-2,3-dihydro-1H-pyrido[2,3-b][1,4]oxazin-7-ylsulfonyl)-1-oxa-8-azaspiro[4.5]decan-3-ylamino)propoxy)-N-((1R,2S)-2-hydroxycyclopentyl)benzenesulfonamide] | 
0.0254 | CNS(=O)(=O)c1cccc(OC[C@@H](O)CN[C@H]2COC3(CCN(S(=O)(=O)c4cncc(-c5ccc(CN)cc5)c4)CC3)C2)c1 [Compound B375, 3-((S)-3-((R)-8-(5-(4-(aminomethyl)phenyl)pyridin-3-ylsulfonyl)-1-oxa-8-azaspiro[4.5]decan-3-ylamino)-2-hydroxypropoxy)-N-methylbenzenesulfonamide] | 
 | CNS(=O)(=O)c1cccc(OC[C@@H](O)CN[C@H]2COC3(CCN(c4nccc(C(=O)O)n4)CC3)C2)c1 [Compound B582, 2-((R)-3-((S)-2-hydroxy-3-(3-(N-methylsulfamoyl)phenoxy)propylamino)-1-oxa-8-azaspiro[4.5]decan-8-yl)pyrimidine-4-carboxylic acid] | IC50 (table of B compounds, cells in μM, CHO-K1 cells): ≥ 100 µM
